Data: US11591328B2 (XIAMEN BIOTIME BIOTECHNOLOGY CO., LTD., priority 2018, dated 2023)
pEC50, pIC50: −log10 of the molar value.

Columns and labels:
c-Kit = c-Kit (Homo sapiens (Human), UniProt P10721); test: c-Kit kinase activity test (Caliper mobility shift assay); format: biochemical
Method: (§1) Caliper mobility shift assay was used to determine the kinase activities of c-Kit, PDGFRα, PDGFRβ, and FLT-3.
(§2) The final concentration of the kinase and its corresponding substrate (ATP and peptide substrate P2 or P22) during the experiment is as follows:
(§3) Add 5 μL of compound (10% DMSO) at 5 times the final concentration of the reaction to a 384-well plate. Add 10 μL of 2.5×enzyme solution and incubate for 10 minutes at room temperature, then add 10 μL of 2.5×substrate (ATP and peptide substrate, P2 or P22). After incubating at 28° C. for 60 minutes, add 25 μL stop solution to stop the reaction. Read conversion rate data on Caliper EZ Reader II (Caliper Life Sciences). Convert the conversion rate into inhibition rate data (% inhibition rate=(max−sample conversion rate)/(max−min)×100). Where max refers to the conversion rate of the DMSO control, and min refers to the conversion rate of the control without enzyme activity. Draw a curve with compound concentration and inhibition rate on the abscissa and ordinate, use XLFit excel add-in version 4.3.1 software to fit the curve and calculate IC50.

PDGFRβ = PDGFRβ (Homo sapiens (Human), UniProt P09619); test: PDGFRβ kinase activity test (Caliper mobility shift assay); format: biochemical
Chain of PDGFRβ (P09619 33-1106): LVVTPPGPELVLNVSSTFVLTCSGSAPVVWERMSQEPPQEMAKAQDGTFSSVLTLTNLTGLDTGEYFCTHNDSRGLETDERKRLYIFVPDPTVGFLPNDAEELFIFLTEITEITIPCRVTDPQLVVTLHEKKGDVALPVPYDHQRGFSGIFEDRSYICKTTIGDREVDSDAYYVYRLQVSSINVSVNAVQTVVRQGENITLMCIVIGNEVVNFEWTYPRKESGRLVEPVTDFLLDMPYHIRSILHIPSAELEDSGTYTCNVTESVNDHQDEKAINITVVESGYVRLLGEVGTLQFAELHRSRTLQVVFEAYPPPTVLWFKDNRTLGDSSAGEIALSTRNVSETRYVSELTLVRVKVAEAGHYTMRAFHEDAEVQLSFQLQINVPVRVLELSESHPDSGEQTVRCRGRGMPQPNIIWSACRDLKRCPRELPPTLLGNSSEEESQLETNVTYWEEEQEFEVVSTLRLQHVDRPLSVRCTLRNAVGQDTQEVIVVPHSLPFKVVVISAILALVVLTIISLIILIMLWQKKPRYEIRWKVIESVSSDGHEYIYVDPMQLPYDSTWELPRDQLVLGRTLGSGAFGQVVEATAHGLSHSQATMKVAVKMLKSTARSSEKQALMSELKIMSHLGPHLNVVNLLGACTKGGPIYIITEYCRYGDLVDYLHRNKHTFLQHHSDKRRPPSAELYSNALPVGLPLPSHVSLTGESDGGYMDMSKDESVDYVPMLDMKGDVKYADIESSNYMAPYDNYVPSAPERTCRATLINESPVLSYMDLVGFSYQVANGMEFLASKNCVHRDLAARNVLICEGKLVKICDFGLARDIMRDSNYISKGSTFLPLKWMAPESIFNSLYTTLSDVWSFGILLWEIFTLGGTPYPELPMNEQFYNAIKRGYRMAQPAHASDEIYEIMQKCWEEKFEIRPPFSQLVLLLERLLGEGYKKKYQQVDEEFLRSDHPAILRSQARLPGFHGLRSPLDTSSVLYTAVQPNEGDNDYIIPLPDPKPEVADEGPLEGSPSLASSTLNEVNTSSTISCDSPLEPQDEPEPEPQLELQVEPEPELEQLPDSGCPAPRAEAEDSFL
Method: as §1, §2, §3

FLT-3 = FLT-3 (Homo sapiens (Human), UniProt P36888); test: FLT-3 kinase activity test (Caliper mobility shift assay); format: biochemical
Chain of FLT-3 (P36888 27-993): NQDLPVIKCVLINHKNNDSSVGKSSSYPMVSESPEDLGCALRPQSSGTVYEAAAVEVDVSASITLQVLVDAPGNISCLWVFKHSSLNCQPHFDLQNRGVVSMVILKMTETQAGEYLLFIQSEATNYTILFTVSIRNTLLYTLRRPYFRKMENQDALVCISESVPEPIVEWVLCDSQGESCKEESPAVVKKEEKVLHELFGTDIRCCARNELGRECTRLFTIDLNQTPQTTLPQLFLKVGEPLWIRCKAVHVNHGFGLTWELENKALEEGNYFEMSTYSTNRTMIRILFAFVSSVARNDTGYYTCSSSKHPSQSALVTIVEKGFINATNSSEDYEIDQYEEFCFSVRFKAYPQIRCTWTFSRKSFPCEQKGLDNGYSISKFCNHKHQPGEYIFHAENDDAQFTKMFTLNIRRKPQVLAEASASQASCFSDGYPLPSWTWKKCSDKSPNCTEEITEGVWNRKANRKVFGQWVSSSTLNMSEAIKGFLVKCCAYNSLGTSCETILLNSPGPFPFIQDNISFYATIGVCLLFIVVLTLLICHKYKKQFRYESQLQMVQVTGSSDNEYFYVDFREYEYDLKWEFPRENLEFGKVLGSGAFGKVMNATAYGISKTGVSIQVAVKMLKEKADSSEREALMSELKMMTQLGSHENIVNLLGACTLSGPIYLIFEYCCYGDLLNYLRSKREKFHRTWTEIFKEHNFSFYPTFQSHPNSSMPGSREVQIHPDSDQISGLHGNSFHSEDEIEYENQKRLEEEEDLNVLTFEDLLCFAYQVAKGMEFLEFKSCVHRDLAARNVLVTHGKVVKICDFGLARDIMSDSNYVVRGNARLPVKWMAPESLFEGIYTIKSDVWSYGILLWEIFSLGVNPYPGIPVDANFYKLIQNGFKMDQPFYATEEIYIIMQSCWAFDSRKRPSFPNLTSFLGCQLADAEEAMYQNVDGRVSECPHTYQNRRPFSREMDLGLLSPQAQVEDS
Method: as §1, §2, §3

[1] = Pharmacokinetic evaluation in CD-1 mice, gavage; format: in vivo; details: 10 mg/kg, plasma; for bioavailability / Cmax / half-life: mouse, po; for half-life: read-out: T½ (converted)
From the text: Using mice as the test animals, the LC/MS/MS method was used to determine that the mice were intragastrically administered the compound of Example 1, the compound of Example 2, the compound of Example 3, the compound of Example 4, the compound of Example 10, and the compound of Example 14. Compound, the concentration of the drug in the plasma at different times after the compound of Example 26. Study the pharmacokinetic behavior of the compound of the present invention in mice and evaluate its pharmacokinetic characteristics.
The test animals were CD-1 mice, purchased from Shanghai Slack Laboratory Animal Co., Ltd.
Weigh a certain amount of drug, add 5% volume of DMSO or DMAc, 5% volume of PEG400 and 90% volume of normal saline to prepare 1.0 mg/mL colorless, clear and transparent liquid or uniformly dispersed suspension.
CD-1 mice were fasted overnight and then administered by gavage. The dosage was 10 mg/kg and the dosage was 10 mL/kg.
Gavage the mice before and after administration at 0.25, 0.5, 1.0, 2.0, 4.0, 6.0, 8.0, 24.0 hours to collect 0.1 mL of blood, place it in a K2-EDTA anticoagulation tube, and centrifuge at 3500 rpm for 10 minutes. Plasma, stored at −20° C.
To determine the content of the test compound in mouse plasma after gavage of different concentrations of drugs: take 20 uL of mouse plasma at each moment after administration, add propranolol and tolbutamide (each 100 ng/mL) 200 uL of acetonitrile solution, vortex for 5 minutes, centrifuge for 12 minutes (4000 rpm), and take 5 uL of the supernatant from the plasma sample for LC/MS/MS analysis.

CSF1R = CSF1R (Homo sapiens (Human), UniProt P07333); test: CSF1R kinase activity test (HTRF); format: biochemical; details: ATP 8 μM
Chain of CSF1R (P07333 20-972, species assumed): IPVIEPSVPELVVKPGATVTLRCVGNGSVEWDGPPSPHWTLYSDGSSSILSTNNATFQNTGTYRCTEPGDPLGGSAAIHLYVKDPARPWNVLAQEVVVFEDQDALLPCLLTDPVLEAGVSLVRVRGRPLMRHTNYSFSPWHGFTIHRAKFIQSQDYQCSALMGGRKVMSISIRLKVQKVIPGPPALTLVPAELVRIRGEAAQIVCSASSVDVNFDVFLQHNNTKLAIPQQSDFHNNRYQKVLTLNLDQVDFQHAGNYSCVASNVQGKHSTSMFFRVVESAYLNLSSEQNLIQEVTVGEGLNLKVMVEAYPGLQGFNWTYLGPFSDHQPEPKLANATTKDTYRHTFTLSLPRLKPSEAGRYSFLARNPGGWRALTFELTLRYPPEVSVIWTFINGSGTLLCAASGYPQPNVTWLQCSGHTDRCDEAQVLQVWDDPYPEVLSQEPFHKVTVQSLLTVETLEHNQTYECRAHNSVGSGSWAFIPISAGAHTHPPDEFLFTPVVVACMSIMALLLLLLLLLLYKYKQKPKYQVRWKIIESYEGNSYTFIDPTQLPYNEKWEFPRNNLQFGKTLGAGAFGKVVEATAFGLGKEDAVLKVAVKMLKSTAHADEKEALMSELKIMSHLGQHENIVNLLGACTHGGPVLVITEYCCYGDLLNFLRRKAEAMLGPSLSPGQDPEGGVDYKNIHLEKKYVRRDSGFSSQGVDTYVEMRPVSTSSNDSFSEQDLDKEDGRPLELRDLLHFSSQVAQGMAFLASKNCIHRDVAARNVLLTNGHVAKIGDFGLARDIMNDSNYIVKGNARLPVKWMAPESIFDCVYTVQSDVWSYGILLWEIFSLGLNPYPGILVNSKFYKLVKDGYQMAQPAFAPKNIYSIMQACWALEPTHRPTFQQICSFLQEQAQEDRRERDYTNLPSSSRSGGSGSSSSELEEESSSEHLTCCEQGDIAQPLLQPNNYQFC
Method: In a 384-well plate, add 10 nL of the test compound to each well with the Echo 550 sample loading device. […] Use this buffer to adjust the concentration of CSF1R to 0.02 ng/ul. Add 5 μL of buffer containing CSF1R to the 384-well plate after centrifugation at 1000 g for 30 seconds and incubate at room temperature for 10 minutes. […] The inhibition rate of each point is obtained by the following formula: […]
Wherein, Ratiopositive: the experimental positive control None; Ratiovehicle: is the test value of 0.1% DMSO. With the compound concentration and inhibition rate on the abscissa and ordinate, the curve was drawn, and the curve was fitted with Graphpad 5.0 software and the IC50 was calculated.

FMS = FMS (Homo sapiens (Human), UniProt P07333)
Chain of FMS (P07333 20-972): as the sequence (P07333 20-972, species assumed) above
Method: Place the culture plate in a cell incubator and incubate for 4 hours. […] Add the diluted recombinant human MCSF to a 24-well plate at 100 μL per well, mix quickly and incubate in an incubator for 4 minutes.

Chain of c-Kit (P10721 26-976): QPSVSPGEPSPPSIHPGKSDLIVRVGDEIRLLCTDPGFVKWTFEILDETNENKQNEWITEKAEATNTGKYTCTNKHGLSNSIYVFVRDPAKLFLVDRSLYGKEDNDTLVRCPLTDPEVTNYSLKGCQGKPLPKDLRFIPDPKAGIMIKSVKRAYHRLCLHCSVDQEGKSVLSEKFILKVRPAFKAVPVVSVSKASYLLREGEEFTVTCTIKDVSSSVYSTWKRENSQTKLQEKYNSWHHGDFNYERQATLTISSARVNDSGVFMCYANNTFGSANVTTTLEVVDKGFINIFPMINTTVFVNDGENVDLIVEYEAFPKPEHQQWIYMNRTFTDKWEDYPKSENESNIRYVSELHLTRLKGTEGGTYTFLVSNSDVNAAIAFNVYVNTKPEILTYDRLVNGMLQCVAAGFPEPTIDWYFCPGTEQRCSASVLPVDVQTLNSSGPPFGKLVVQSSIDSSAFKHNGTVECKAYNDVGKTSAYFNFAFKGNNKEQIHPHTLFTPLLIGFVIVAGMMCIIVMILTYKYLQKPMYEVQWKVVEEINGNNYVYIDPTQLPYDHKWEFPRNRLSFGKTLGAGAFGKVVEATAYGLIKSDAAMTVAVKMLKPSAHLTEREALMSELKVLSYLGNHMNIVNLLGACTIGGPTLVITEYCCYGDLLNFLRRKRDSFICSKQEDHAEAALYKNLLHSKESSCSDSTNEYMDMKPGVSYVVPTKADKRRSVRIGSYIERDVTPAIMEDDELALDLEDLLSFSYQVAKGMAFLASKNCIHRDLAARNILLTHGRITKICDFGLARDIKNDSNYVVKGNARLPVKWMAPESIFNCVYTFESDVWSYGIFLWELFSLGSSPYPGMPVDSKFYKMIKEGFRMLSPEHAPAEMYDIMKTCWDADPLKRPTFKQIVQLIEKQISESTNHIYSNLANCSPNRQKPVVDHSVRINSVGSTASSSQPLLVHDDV

SMILES	pIC50 (c-Kit)	pIC50 (PDGFRβ)	pIC50 (CSF1R)	further results
Cn1cc(-c2cc(Oc3ccc(NC(=O)N4CCC5(CCCCC5)C4=O)nc3)ccn2)cn1 [Compound 2]	8.27	5.80	8.21	AUC [1]: 6100 ng·h/mL; bioavailability [1]: 71.5%; Cmax [1]: 860 ng/mL; half-life [1]: 3.14 h
Cn1cc(-c2cc(Oc3ccc(NC(=O)N4CCC5(CCCC5)C4=O)nc3)ccn2)cn1 [Compound 3]	8.59	5.79	8.96	AUC [1]: 15800 ng·h/mL; bioavailability [1]: 89.5%; Cmax [1]: 3200 ng/mL; half-life [1]: 3.3 h
Cn1cc(-c2cc(Oc3ccc(NC(=O)N4CCC5(CCOCC5)C4=O)nc3)ccn2)cn1 [Compound 5]	–	–	8.04	–
Cn1cc(-c2cc(Oc3ccc(NC(=O)N4CCC5(CCCCC5(F)F)C4=O)nc3)ccn2)cn1 (stereo not shown) [Compound 6]	–	–	8.27	–
Cn1cc(-c2cc(Oc3ccc(NC(=O)N4CCC5(CCCO5)C4=O)nc3)ccn2)cn1 (stereo not shown) [Compound 7]	–	–	8.57	–
Cn1cc(-c2cc(Oc3ccc(NC(=O)N4CCC5(CCCC5(F)F)C4=O)nc3)ccn2)cn1 (stereo not shown) [Compound 8]	–	–	8.64	–
Cn1cc(-c2cc(Oc3ccc(NC(=O)N4CCC5(CCCCC5F)C4=O)nc3)ccn2)cn1 (stereo not shown) [Compound 9]	–	–	8.68	–
Cn1cc(-c2cc(Oc3ccc(NC(=O)N4CCC5(CC5)C4=O)nc3)ccn2)cn1 [Compound 10]	–	–	9.26	AUC [1]: 21300 ng·h/mL; bioavailability [1]: 64%; Cmax [1]: 2240 ng/mL; half-life [1]: 5.18 h; pEC50 (FMS): 8.40
Cn1cc(-c2cc(Oc3ccc(NC(=O)N4CCC5(CCNCC5)C4=O)nc3)ccn2)cn1 [Compound 11]	–	–	6.52	–
CC(=O)N1CCC2(CC1)CCN(C(=O)Nc1ccc(Oc3ccnc(-c4cnn(C)c4)c3)cn1)C2=O [Compound 12]	–	–	6.77	–
Cn1cc(-c2cc(Oc3ccc(NC(=O)N4CCC5(CCN(S(C)(=O)=O)CC5)C4=O)nc3)ccn2)cn1 [Compound 13]	–	–	7.60	–
Cc1nc(NC(=O)N2CCC3(CCC3)C2=O)ccc1Oc1ccnc(-c2cnn(C)c2)c1 [Compound 15]	7.54	< 5.00	–	pIC50 (FLT-3): < 5.00
CCc1nc(NC(=O)N2CCC3(CCC(F)(F)CC3)C2=O)ccc1Oc1ccnc(-c2cnn(C)c2)c1 [Compound 16]	–	–	8.19	–
Cn1cc(-c2cc(Oc3ccc(NC(=O)N4CCC5(CCCC(O)C5)C4=O)nc3)ccn2)cn1 (stereo not shown) [Compound 17]	–	–	8.19	–
Cn1cc(-c2cc(Oc3ccc(NC(=O)N4CCC5(CCC(=O)C5)C4=O)nc3)ccn2)cn1 (stereo not shown) [Compound 19]	7.96	6.14	–	pIC50 (FLT-3): < 5.00
CN1CCC(c2ccc(-c3cc(Oc4ccc(NC(=O)N5CCC6(CCC(F)(F)CC6)C5=O)nc4)ccn3)cc2)CC1 [Compound 22]	–	–	8.17	–
Cc1ncc(-c2cc(Oc3ccc(NC(=O)N4CCC5(CCC(F)(F)CC5)C4=O)nc3)ccn2)s1 [Compound 23]	–	–	8.28	–

Further lines, with some results ahead:

pIC50 (c-Kit)	pIC50 (PDGFRβ)	SMILES	pIC50 (CSF1R)	further results
8.46	5.54	Cn1cc(-c2cc(Oc3ccc(NC(=O)N4CCC5(CCC5)C4=O)nc3)ccn2)cn1 [Compound 1]	–	pIC50 (FLT-3): < 5.00; AUC [1]: 26600 ng·h/mL; bioavailability [1]: 100%; Cmax [1]: 3390 ng/mL; half-life [1]: 2.73 h
7.80	6.11	Cn1cc(-c2cc(Oc3ccc(NC(=O)N4CCC5(CCC(F)(F)CC5)C4=O)nc3)ccn2)cn1 [Compound 4]	–	pIC50 (FLT-3): < 5.00; AUC [1]: 38800 ng·h/mL; bioavailability [1]: 100%; Cmax [1]: 5270 ng/mL; half-life [1]: 2.64 h
7.77	< 5.00	Cc1nc(NC(=O)N2CCC3(CCC(F)(F)CC3)C2=O)ccc1Oc1ccnc(-c2cnn(C)c2)c1 [Compound 14]	–	pIC50 (FLT-3): < 5.00; AUC [1]: 20300 ng·h/mL; bioavailability [1]: 67.3%; Cmax [1]: 1400 ng/mL; half-life [1]: 5.91 h
8.08	6.46	Cn1cc(-c2cc(Oc3ccc(NC(=O)N4CCC5(CCCC(F)(F)C5)C4=O)nc3)ccn2)cn1 (stereo not shown) [Compound 18]	–	pIC50 (FLT-3): 5.06
8.00	5.13	O=C(Nc1ccc(Oc2ccnc(-c3cn[nH]c3)c2)cn1)N1CCC2(CCC(F)(F)CC2)C1=O [Compound 21]	–	–
7.70	–	Cn1cc(-c2cc(Oc3ccc(NC(=O)N4CCC5(CCCC(F)(F)C5)C4=O)nc3)ccn2)cn1 (stereo not shown) [Compound 24]	–	–
8.30	–	Cn1cc(-c2cc(Oc3ccc(NC(=O)N4CCC5(CCC(F)(F)C5)C4=O)nc3)ccn2)cn1 (stereo not shown) [Compound 25]	–	–
8.35	5.55	Cn1cc(-c2cc(Oc3ccc(NC(=O)N4CCC5(CC(F)(F)C5)C4=O)nc3)ccn2)cn1 [Compound 26]	–	pIC50 (FLT-3): < 5.00; AUC [1]: 48300 ng·h/mL; bioavailability [1]: 79%; Cmax [1]: 4490 ng/mL; half-life [1]: 6.72 h
